Measurements reported in ChEMBL document CHEMBL1131351, “Nonsteroidal progesterone receptor antagonists based on a conformationally-restricted subseries of 6-aryl-1,2-dihydro-2,2,4-trimethylquinolines” (Bioorg Med Chem Lett, 1998).

Tests used:
Progesterone receptor [1] = target: T1, Progesterone receptor (Homo sapiens, UniProt P06401); experiment: Antagonist activity against human progesterone receptor B (hPR-B) in co-transfected CV-1 cells; type: functional, cell-based
T1 sequence (P06401 whole entry): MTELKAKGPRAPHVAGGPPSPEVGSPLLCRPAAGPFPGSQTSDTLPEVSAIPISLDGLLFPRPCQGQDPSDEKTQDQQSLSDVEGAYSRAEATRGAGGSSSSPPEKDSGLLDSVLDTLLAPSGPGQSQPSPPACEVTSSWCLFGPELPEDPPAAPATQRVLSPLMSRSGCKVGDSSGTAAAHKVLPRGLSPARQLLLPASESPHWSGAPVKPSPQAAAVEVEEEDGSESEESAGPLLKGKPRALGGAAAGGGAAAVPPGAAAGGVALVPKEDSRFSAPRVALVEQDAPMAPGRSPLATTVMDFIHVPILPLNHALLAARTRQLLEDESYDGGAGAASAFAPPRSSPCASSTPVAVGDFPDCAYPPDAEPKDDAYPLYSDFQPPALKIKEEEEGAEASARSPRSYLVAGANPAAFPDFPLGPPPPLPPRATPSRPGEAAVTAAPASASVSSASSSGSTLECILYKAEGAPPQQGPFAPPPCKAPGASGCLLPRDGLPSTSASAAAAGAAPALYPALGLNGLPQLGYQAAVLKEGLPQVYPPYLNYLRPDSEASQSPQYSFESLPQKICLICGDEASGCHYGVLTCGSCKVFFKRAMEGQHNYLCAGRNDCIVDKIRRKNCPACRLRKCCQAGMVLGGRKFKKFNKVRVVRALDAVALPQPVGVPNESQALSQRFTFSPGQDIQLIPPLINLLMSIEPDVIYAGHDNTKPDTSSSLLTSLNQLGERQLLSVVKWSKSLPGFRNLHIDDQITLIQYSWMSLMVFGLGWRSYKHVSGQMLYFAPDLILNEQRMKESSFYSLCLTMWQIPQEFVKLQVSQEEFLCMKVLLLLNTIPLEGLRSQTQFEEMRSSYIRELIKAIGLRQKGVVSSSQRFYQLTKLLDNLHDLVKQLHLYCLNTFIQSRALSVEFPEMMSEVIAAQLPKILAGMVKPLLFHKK

Progesterone receptor [2] = target: T1, Progesterone receptor; experiment: Binding affinity against human progesterone receptor-A (hPR-A)
Progesterone receptor [3] = target: T1, Progesterone receptor; experiment: Agonistic activity against human progesterone receptor B (hPR-B) in co-transfected CV-1 cells; type: functional, cell-based

IC50 (Progesterone receptor [1])	Ki (Progesterone receptor [2])	EC50 (Progesterone receptor [3])	Compound
80 nM	25.5 nM		CC1=CC(C)(C)Nc2cc3c(cc21)-c1c(F)cc(F)cc1C3O (configuration not stated)
10000 nM	> 10000 nM		CC1=CC(C)(C)Nc2cc3c(cc21)-c1ccc(Br)cc1C3C (configuration not stated)
1850 nM	184 nM		CC1=CC(C)(C)Nc2cc3oc4ccccc4c3cc21
99 nM	449 nM		CC1=CC(C)(C)Nc2cc3c(cc21)-c1c(F)cccc1C3O (configuration not stated)
74 nM	202 nM		CC1=CC(C)(C)Nc2cc3c(cc21)-c1cc(F)cc(F)c1C3O (configuration not stated)
220 nM	14 nM		CC1=CC(C)(C)Nc2cc3c(cc21)-c1ccccc1C3
59 nM	113 nM		CC1=CC(C)(C)Nc2cc3[nH]c4ccccc4c3cc21
163 nM	53.1 nM		CC1=CC(C)(C)Nc2cc3c(c(Cl)c21)-c1ccccc1C3O (configuration not stated)
158 nM	29.1 nM		CC1=CC(C)(C)Nc2cc3c(cc21)-c1c(F)cccc1C3=O
3440 nM	1860 nM		CC1=CC(C)(C)Nc2cc3c(cc21)-c1ccc(Br)cc1C3O (configuration not stated)
10000 nM	12.4 nM		CC1=CC(C)(C)Nc2cc3c(cc21)-c1cccc(CO)c1C3
549 nM	13 nM		CC1=CC(C)(C)Nc2ccc3c(c21)Cc1ccccc1-3
609 nM	483 nM		CC1=CC(C)(C)Nc2cc3c(cc21)-c1ccccc1C3O (configuration not stated)
122 nM	101 nM		CC1=CC(C)(C)Nc2cc3c(cc21)-c1ccc(F)cc1C3O (configuration not stated)
10000 nM	> 10000 nM		CC1=CC(C)(C)Nc2cc3c(cc21)-c1ccc(Br)cc1C3Cc1ccccc1 (configuration not stated)
1770 nM	2.3 nM		CC1=CC(C)(C)Nc2cc3c(cc21)-c1cccc(F)c1C3
353 nM	3550 nM		CC1=CC(C)(C)Nc2cc3c(cc21)-c1ccccc1C3=O

Continued, molecule first:

Compound	IC50 (Progesterone receptor [1])	Ki (Progesterone receptor [2])	EC50 (Progesterone receptor [3])
CC1=CC(C)(C)Nc2ccc3c(oc4ccccc43)c21	1140 nM	77 nM	
CC1=CC(C)(C)Nc2cc3c(cc21)-c1c(F)ccc(F)c1C3	146 nM	3.1 nM	
CC1=CC(C)(C)Nc2cc3c(c(F)c21)-c1ccc(F)cc1C3OC(=O)C(F)(F)F (configuration not stated)	46 nM	62.5 nM	
CC1=CC(C)(C)Nc2cc3c(cc21)-c1ccc([N+](=O)[O-])cc1C3	90 nM	3.6 nM	
CC1=CC(C)(C)Nc2cc3c(cc21)-c1ccc(Cl)cc1C3	248 nM	29 nM	
CC1=CC(C)(C)Nc2cc3c(c(F)c21)-c1ccc(F)cc1C3(C)O (configuration not stated)	10000 nM	> 10000 nM	
CC1=CC(C)(C)Nc2ccc3c(c21)Cc1cc([N+](=O)[O-])c(F)cc1-3	3330 nM	97 nM	
CC1=CC(C)(C)Nc2ccc3c(c21)Cc1cc([N+](=O)[O-])ccc1-3	1670 nM	57 nM	
CC1=CC(C)(C)Nc2cc3c(cc21)-c1cc(F)c([N+](=O)[O-])cc1C3	100 nM	1.9 nM	
CCCCn1c2ccccc2c2ccc3c(c21)C(C)=CC(C)(C)N3	416 nM	77 nM	
CC1=CC(C)(C)Nc2cc(F)c3c(c21)Cc1cc(F)ccc1-3	5680 nM	20.9 nM	
CC1=CC(C)(C)Nc2cc3c(c(F)c21)-c1ccc(F)cc1C3		1.5 nM	650 nM
CC1=CC(C)(C)Nc2ccc3c(c21)Cc1cc(Br)ccc1-3	2330 nM	200 nM	
CC1=CC(C)(C)Nc2cc3c(cc21)-c1ccc(Br)cc1C3	434 nM	24 nM	
CC1=CC(C)(C)Nc2cc3c(c(F)c21)-c1ccc(F)cc1C3=O	365 nM	> 10000 nM	
CCn1c2ccccc2c2ccc3c(c21)C(C)=CC(C)(C)N3	284 nM	169 nM	
CC1=CC(C)(C)Nc2ccc3c(c21)Cc1c(F)cccc1-3	496 nM	15.5 nM	
CC1=CC(C)(C)Nc2cc3c(cc21)-c1ccc(F)cc1C3		3.5 nM	
CC1=CC(C)(C)Nc2cc(F)c3c(c21)C(O)c1cc(F)ccc1-3 (configuration not stated)	10000 nM	2580 nM	
CC(=O)c1ccc2c(c1)Cc1cc3c(cc1-2)C(C)=CC(C)(C)N3	164 nM	176 nM	
CC1CC(C)(C)Nc2cc3c(cc21)-c1ccccc1C3 (configuration not stated)	424 nM	87 nM	
CC1=CC(C)(C)Nc2ccc3c([nH]c4ccccc43)c21	662 nM	> 1000 nM	
